Columns and labels:
Blood [1] = test: AUC (0 to t) in human whole blood at 60 mg, po by radio-HPLC chromatogram analysis; assay type: ADME, organism-based; conditions: in vivo
Blood [2] = test: Cmax in human whole blood at 60 mg, po by radio-HPLC chromatogram analysis; assay type: ADME, organism-based; parameters: dose 60 mg, route oral; conditions: in vivo
[3] = Elimination half life in human; assay type: ADME, organism-based; conditions: in vivo, read-out: beta t1/2 (converted)
Plasma [4] = test: AUC (0 to infinity) in human plasma at 60 mg, po by radio-HPLC chromatogram analysis; assay type: ADME, organism-based; parameters: dose 60 mg, time infinity, route oral; conditions: in vivo
[5] = Drug metabolism in human assessed as metabolite excretion in feces at 60 mg, po after 168 hrs by radio-HPLC chromatogram analysis; assay type: ADME, organism-based; conditions: in vivo
[6] = Tmax in human plasma at 60 mg, po by LC-MS/MS analysis; assay type: ADME, organism-based
[7] = Terminal elimination half life in human plasma at 60 mg, po by LC-MS/MS analysis; assay type: ADME, organism-based; conditions: read-out: beta t1/2 (converted)
[8] = AUC (0 to infinity) in human plasma at 60 mg, po by LC-MS/MS analysis; assay type: ADME, organism-based; parameters: dose 60 mg, route oral, time infinity
Plasma [9] = test: AUC (0 to t) in human plasma at 60 mg, po by radio-HPLC chromatogram analysis; assay type: ADME, organism-based; conditions: in vivo
[10] = Retention time of the compound; assay type: physicochemical
Homo sapiens = test: Toxicity in human assessed as sign of adverse effect at 60 mg, po; assay type: organism-based; conditions: in vivo
Plasma [11] = test: Cmax in human plasma at 60 mg, po by radio-HPLC chromatogram analysis; assay type: ADME, organism-based; parameters: dose 60 mg, route oral; conditions: in vivo
[12] = AUC (0 to t) in human plasma at 60 mg, po by LC-MS/MS analysis; assay type: ADME, organism-based
clinical = conditions: human, in vivo
[13] = Cmax in human plasma at 60 mg, po by LC-MS/MS analysis; assay type: ADME, organism-based; parameters: dose 60 mg, route oral
Blood [14] = test: AUC (0 to infinity) in human whole blood at 60 mg, po by radio-HPLC chromatogram analysis; assay type: ADME, organism-based; parameters: dose 60 mg, time infinity, route oral; conditions: in vivo
Plasma [15] = test: Tmax in human plasma treated with 60 mg, po of [14C]edoxaban by LC-MS/MS analysis; assay type: ADME, organism-based; conditions: in vivo
Plasma [16] = test: Terminal elimination half life in human plasma treated with 60 mg, po of [14C]edoxaban by LC-MS/MS analysis; assay type: ADME, organism-based
[17] = Drug excretion in feces of human treated with 60 mg, po of [14C]edoxaban after 168 hrs by radio-HPLC chromatogram analysis; assay type: ADME, organism-based; conditions: in vivo
Plasma [18] = test: AUC (0 to t) in human plasma treated with 60 mg, po of [14C]edoxaban by LC-MS/MS analysis; assay type: ADME, organism-based; conditions: in vivo
Plasma [19] = test: AUC (0 to infinity) in human plasma treated with 60 mg, po of [14C]edoxaban by LC-MS/MS analysis; assay type: ADME, organism-based; parameters: dose 60 mg, time infinity, route oral; conditions: in vivo
Plasma [20] = test: Cmax in human plasma treated with 60 mg, po of [14C]edoxaban by LC-MS/MS analysis; assay type: ADME, organism-based; parameters: dose 60 mg, route oral; conditions: in vivo
[21] = Drug excretion in urine of human treated with 60 mg, po of [14C]edoxaban after 168 hrs by radio-HPLC chromatogram analysis; assay type: ADME, organism-based; conditions: in vivo

Row | SMILES | Retention_time [10] | Tmax (Plasma [15]) | beta t1/2 (Plasma [16]) | AUCt (Plasma [18]) | AUC (Plasma [19]) | Cmax (Plasma [20]) | Drug excretion [21] | Drug excretion [17] | other results
1 | CN1CCc2nc([14C](=O)N[C@@H]3C[C@@H](C(=O)N(C)C)CC[C@@H]3NC(=O)C(=O)Nc3ccc(Cl)cn3)sc2C1 | 54.08 min | – | – | – | – | – | – | – | AUCt (Blood [1]): 1.269 ugequiv.h/ml; Cmax (Blood [2]): 0.352 ugequiv/ml; half-life [3]: 8 h; AUC (Plasma [4]): 1.947 ugequiv.h/ml; Drug excretion [5]: 0.05%; Tmax [6]: 0.5 h; half-life [7]: 7.4 h; AUC(0-inf) [8]: 1600 ng·h/mL; AUCt (Plasma [9]): 1.683 ugequiv.h/ml; Activity (Homo sapiens): Non-toxic; Cmax (Plasma [11]): 0.349 ugequiv/ml; AUC(0-t) [12]: 1580 ng·h/mL; Tmax (clinical): 1 h; Cmax [13]: 332 ng/mL; AUC (Blood [14]): 1.673 ugequiv.h/ml
2 | CN(C)C(=O)[C@H]1CC[C@H](NC(=O)C(=O)Nc2ccc(Cl)cn2)[C@H](NC(=O)c2nc3c(s2)C[N+](C)([C@@H]2O[C@H](C(=O)[O-])[C@@H](O)[C@H](O)[C@H]2O)CC3)C1 (stereo partly specified) | 38.9 min | – | – | – | – | – | – | – | –
3 | CN(C)C(=O)[C@H]1CC[C@H](NC(=O)C(=O)Nc2ccc(Cl)cn2)[C@H](NC(=O)c2nc3c(s2)CNCC3)C1 | 46.52 min | 1 h | 9 h | 55.1 ng·h/mL | 56.2 ng·h/mL | 6.99 ng/mL | 0.45% | 1.66% | –
4 | CNC(=O)[C@H]1CC[C@H](NC(=O)C(=O)Nc2ccc(Cl)cn2)[C@H](NC(=O)c2nc3c(s2)CN(C)CC3)C1 (stereo in doubt; M8) | 49.97 min | 1.8 h | 9 h | 3.5 ng·h/mL | 4.41 ng·h/mL | 0.63 ng/mL | – | 0.34% | Drug excretion ([21]; BLD = below limit of detection): BLD

Continued, in another order:

Row | Retention_time [10] | Tmax (Plasma [15]) | beta t1/2 (Plasma [16]) | AUCt (Plasma [18]) | AUC (Plasma [19]) | Cmax (Plasma [20]) | Drug excretion [21] | Drug excretion [17] | SMILES | other results
5 | 41.45 min | – | – | – | – | – | – | – | CN(C)C(=O)[C@H]1CC[C@H](NC(=O)C(=O)Nc2ccc(Cl)cn2)[C@H](NC(=O)c2nc3c(s2)C[N+](C)([O-])CC3)C1 (stereo partly specified) | –
6 | 25.41 min | 1.8 h | 6.9 h | 94.7 ng·h/mL | 95.8 ng·h/mL | 14.9 ng/mL | 1.85% | – | CN1CCc2nc(C(=O)N[C@@H]3C[C@@H](C(=O)N(C)C)CC[C@@H]3NC(=O)C(=O)O)sc2C1 | Drug excretion ([17]; BLD = below limit of detection): BLD
7 | 40.84 min | 1.8 h | 8.2 h | 145.5 ng·h/mL | 147 ng·h/mL | 22.2 ng/mL | 1.56% | 1.93% | CN1CCc2nc(C(=O)N[C@@H]3C[C@@H](C(=O)O)CC[C@@H]3NC(=O)C(=O)Nc3ccc(Cl)cn3)sc2C1 | –
8 | 34.09 min | – | – | – | – | – | – | – | CN1CCc2nc(C(=O)N[C@@H]3C[C@@H](C(=O)N(C)C)CC[C@@H]3N)sc2C1 (stereo in doubt; M2) | –
